In brackets after ≈: the same amount, converted by molar mass.
Assays:
[1] = biological target: T1, Amine oxidase [flavin-containing] B (Homo sapiens, UniProt P27338); assay: biochemical
T1 sequence (P27338 whole entry): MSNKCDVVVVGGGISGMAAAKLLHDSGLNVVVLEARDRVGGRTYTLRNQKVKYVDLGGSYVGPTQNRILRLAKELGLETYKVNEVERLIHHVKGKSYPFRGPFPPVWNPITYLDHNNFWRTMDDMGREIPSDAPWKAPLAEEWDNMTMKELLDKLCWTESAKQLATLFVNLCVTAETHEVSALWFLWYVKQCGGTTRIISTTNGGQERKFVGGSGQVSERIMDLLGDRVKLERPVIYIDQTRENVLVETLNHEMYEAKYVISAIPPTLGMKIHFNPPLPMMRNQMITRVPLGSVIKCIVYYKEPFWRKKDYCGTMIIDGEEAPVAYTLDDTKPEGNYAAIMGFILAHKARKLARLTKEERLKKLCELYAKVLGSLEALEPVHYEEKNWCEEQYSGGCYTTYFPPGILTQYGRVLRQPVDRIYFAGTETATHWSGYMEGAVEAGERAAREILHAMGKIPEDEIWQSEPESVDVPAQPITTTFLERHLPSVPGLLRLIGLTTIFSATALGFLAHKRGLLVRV
Description: Inhibition of recombinant human MAOB expressed in baculovirus-infected BTI insect cells using p-tyramine as substrate measured for 45 mins in presence of MAOA inhibitor clorgyline by continuous fluorescence-based method

[2] = buffer, pH 2, […], 500 µM
[3] = Effective permeability of the compound at pH 5.5 at 200 uM after 4 hrs by PAMPA-GI assay; format: physicochemical; conditions: read-out: Peff
[4] = Effective permeability of the compound at pH 2 at 200 uM after 4 hrs by PAMPA-GI assay; format: physicochemical; conditions: read-out: Peff
[5] = buffer, pH 5.5, […], 500 µM
[6] = n-octanol-phosphate buffer distribution coefficient, log D of the compound at pH 2 after 90 mins by shake-flask method; format: physicochemical
[7] = Effective permeability of the compound at pH 7.4 at 200 uM after 4 hrs by PAMPA-GI assay; format: physicochemical; conditions: read-out: Peff
[8] = buffer, pH 7.4, […], 500 µM
physchem [9] = conditions: phosphate buffer, pH 7.4
[10] = n-octanol-phosphate buffer distribution coefficient, log D of the compound at pH 5.5 after 90 mins by shake-flask method; format: physicochemical
physchem [11] = conditions: phosphate buffer, pH 2
[12] = n-octanol-phosphate buffer distribution coefficient, log D of the compound at pH 7.4 after 90 mins by shake-flask method; format: physicochemical
physchem [13] = conditions: phosphate buffer, pH 5.5
[14] = Effective permeability of the compound at pH 7.4 at 200 uM after 4 hrs by PAMPA-BBB assay; format: physicochemical; conditions: read-out: Peff
[15] = biological target: T2, Amine oxidase [flavin-containing] A (Homo sapiens, UniProt P21397); assay: biochemical
T2 sequence (P21397 whole entry): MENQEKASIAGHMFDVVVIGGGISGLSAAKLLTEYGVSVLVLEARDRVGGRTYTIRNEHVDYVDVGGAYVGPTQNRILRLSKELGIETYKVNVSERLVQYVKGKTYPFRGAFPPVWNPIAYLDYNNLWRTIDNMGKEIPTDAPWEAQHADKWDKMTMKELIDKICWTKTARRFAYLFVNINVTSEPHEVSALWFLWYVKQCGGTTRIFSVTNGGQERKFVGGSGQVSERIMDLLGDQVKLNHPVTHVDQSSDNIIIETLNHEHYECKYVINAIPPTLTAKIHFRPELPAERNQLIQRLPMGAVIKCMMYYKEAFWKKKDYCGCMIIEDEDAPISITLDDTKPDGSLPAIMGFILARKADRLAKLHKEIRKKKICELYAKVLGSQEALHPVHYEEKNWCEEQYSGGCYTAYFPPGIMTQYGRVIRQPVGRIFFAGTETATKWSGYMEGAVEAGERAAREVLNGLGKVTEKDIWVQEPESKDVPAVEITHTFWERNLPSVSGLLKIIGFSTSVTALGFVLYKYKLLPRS

Homo sapiens = species on record: Homo sapiens; assay: Selectivity index, ratio of IC50 for recombinant human MAOA to IC50 for recombinant human MAOB
[16] = biological target: T3, Amine oxidase [flavin-containing] A (Rattus norvegicus, UniProt P21396)
T3 sequence (P21396 whole entry): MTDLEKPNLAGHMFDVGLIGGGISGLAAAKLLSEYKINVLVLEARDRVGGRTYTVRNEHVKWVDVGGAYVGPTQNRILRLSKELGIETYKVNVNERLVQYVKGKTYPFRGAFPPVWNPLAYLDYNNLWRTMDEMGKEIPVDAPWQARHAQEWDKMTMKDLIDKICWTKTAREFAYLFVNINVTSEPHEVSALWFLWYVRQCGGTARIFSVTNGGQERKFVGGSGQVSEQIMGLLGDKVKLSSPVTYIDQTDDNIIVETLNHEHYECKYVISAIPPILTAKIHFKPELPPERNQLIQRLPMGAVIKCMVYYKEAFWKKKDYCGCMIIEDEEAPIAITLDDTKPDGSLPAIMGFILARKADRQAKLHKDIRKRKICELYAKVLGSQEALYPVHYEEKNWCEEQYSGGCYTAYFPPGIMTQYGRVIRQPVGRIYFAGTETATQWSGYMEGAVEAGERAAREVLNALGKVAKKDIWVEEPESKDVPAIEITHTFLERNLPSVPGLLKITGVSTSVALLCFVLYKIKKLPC

[17] = biological target: T4, Amine oxidase [flavin-containing] B (Rattus norvegicus, UniProt P19643); assay: Inhibition of MAOB in Sprague-Dawley rat liver mitochondria using p-tyramine as substrate measured for 45 mins in presence of MAOA inhibitor clorgyline by continuous fluorescence-based method
T4 sequence (P19643 whole entry): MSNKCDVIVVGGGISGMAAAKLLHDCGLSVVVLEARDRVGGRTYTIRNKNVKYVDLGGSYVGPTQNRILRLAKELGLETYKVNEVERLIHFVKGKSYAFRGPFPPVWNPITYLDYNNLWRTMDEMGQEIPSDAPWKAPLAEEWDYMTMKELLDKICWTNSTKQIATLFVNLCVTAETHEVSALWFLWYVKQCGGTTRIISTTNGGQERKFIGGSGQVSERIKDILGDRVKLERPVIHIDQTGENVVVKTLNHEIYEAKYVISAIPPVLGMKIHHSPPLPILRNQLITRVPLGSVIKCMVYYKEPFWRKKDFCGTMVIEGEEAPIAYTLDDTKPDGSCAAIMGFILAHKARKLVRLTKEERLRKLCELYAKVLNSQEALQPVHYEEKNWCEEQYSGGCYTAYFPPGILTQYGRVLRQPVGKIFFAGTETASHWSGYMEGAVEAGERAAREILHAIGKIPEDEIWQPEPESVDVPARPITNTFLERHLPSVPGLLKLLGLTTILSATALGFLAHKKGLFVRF

SMILES	Ki [1]	log(Kinetic_solubility) [2]	Papp at 4 h, 200 µM [3]	Papp at 4 h, 200 µM [4]	log(Kinetic_solubility) [5]	logD at […] [6]	Papp at 4 h, 200 µM [7]	log(Kinetic_solubility) [8]	solubility kinetic at […], 500 µM (physchem [9])	logD at […] [10]	solubility kinetic at […], 500 µM (physchem [11])	logD at […] [12]	solubility kinetic at […], 500 µM (physchem [13])	Papp at 4 h, 200 µM [14]	IC50 [15]	Ratio IC50 (Homo sapiens)	IC50 [1]	IC50 [16]	IC50 [17]
Cn1cc2cc(C(=O)Nc3ccc(Cl)c(Cl)c3)ccc2n1	0.64 nM	-4.24	16.1 ×10⁻⁶ cm/s	14.5 ×10⁻⁶ cm/s	-4.3	2.49	17.6 ×10⁻⁶ cm/s	-4.25	55.9 µM (≈ 17.9 µg/mL)	2.54	57.5 µM (≈ 18.4 µg/mL)	2.97	50 µM (≈ 16 µg/mL)	29 ×10⁻⁶ cm/s					
Cn1cc2cc(C(=O)Nc3ccc(F)c(Cl)c3)ccc2n1	3.57 nM	-3.36	9.11 ×10⁻⁶ cm/s	8.16 ×10⁻⁶ cm/s	-3.38	3.24	9.35 ×10⁻⁶ cm/s	-3.36	441 µM (≈ 134 µg/mL)	2.55	439 µM (≈ 133 µg/mL)	2.64	421 µM (≈ 128 µg/mL)	17.2 ×10⁻⁶ cm/s	8.13 nM	70			
Cn1ncc2cc(C(=O)Nc3ccc(F)c(F)c3)ccc21																6580			
O=C(Nc1ccc(Cl)c(Cl)c1)c1ccc2[nH]ncc2c1																17100			
COCCn1ncc2cc(C(=O)Nc3ccc(Cl)c(Cl)c3)ccc21	0.48 nM														2870 nM	> 2660	1.08 nM	> 10000 nM	3.82 nM
O=C(Nc1ccccc1)c1ccc2[nH]ncc2c1																> 86			
Cn1ncc2cc(C(=O)Nc3ccc(Cl)c(Cl)c3)ccc21		-5.39	16.8 ×10⁻⁶ cm/s	18.3 ×10⁻⁶ cm/s	-5.52		18.6 ×10⁻⁶ cm/s	-5.45	3.51 µM (≈ 1.12 µg/mL)		4.07 µM (≈ 1.3 µg/mL)		3.04 µM (≈ 0.973 µg/mL)	22.3 ×10⁻⁶ cm/s					
Cn1ncc2cc(C(=O)Nc3ccc(F)c(Cl)c3)ccc21			29.5 ×10⁻⁶ cm/s	27.2 ×10⁻⁶ cm/s		2.39	31.7 ×10⁻⁶ cm/s		77.4 µM (≈ 23.5 µg/mL)	2.52	57.5 µM (≈ 17.5 µg/mL)		69.1 µM (≈ 21 µg/mL)	37.6 ×10⁻⁶ cm/s					
COCCc1ccc(OCC(O)CNC(C)C)cc1 (stereo unspecified) [METOPROLOL]						-2.46				-0.76		-0.37							
Cn1cc2cc(C(=O)Nc3ccc(F)c(F)c3)ccc2n1																20			
O=C(Nc1ccc(F)c(F)c1)c1ccc2[nH]ncc2c1		-4.21	≤ 0.59 ×10⁻⁶ cm/s	≤ 0.59 ×10⁻⁶ cm/s	-4.2	2.17	≤ 0.59 ×10⁻⁶ cm/s	-4.22	60.7 µM (≈ 16.6 µg/mL)	1.94	61.1 µM (≈ 16.7 µg/mL)		62.7 µM (≈ 17.1 µg/mL)	8.15 ×10⁻⁶ cm/s	6.61 nM	6290			
